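Each compound was tested at five concentrations against cells in 96-well plates for 48 hours. The concentration for full growth arrest is given as TGI.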
Experiments:
Experiment in all cases: inhibition of tumour cell growth, NCI panel, 48 h
RPMI-8226 leukemia = test system: RPMI-8226 leukemia
MDA-MB-231 breast = test system: MDA-MB-231 breast
MDA-N = test system: MDA-N
SN12C renal = test system: SN12C renal
OVCAR-5 ovarian = test system: OVCAR-5 ovarian
SNB-19 CNS = test system: SNB-19 CNS
U251 CNS = test system: U251 CNS
KM12 colon = test system: KM12 colon
MOLT-4 leukemia = test system: MOLT-4 leukemia
HCT-15 colon = test system: HCT-15 colon
NCI-H460 lung = test system: NCI-H460 lung
IGROV1 ovarian = test system: IGROV1 ovarian
LOX IMVI melanoma = test system: LOX IMVI melanoma
PC-3 prostate = test system: PC-3 prostate
MDA-MB-435 = test system: MDA-MB-435
M14 melanoma = test system: M14 melanoma
MALME-3M melanoma = test system: MALME-3M melanoma
SR leukemia = test system: SR leukemia
SW-620 colon = test system: SW-620 colon
UACC-62 melanoma = test system: UACC-62 melanoma
UACC-257 melanoma = test system: UACC-257 melanoma
CCRF-CEM leukemia = test system: CCRF-CEM leukemia
OVCAR-4 ovarian = test system: OVCAR-4 ovarian
DU-145 prostate = test system: DU-145 prostate
786-0 renal = test system: 786-0 renal
HS 578T breast = test system: HS 578T breast
MCF7 breast = test system: MCF7 breast
EKVX NSCLC = test system: EKVX NSCLC
SK-MEL-28 melanoma = test system: SK-MEL-28 melanoma
NCI-H23 lung = test system: NCI-H23 lung
ACHN renal = test system: ACHN renal
SK-MEL-2 melanoma = test system: SK-MEL-2 melanoma
A549 NSCLC = test system: A549 NSCLC
SNB-75 CNS = test system: SNB-75 CNS
OVCAR-8 ovarian = test system: OVCAR-8 ovarian
NCI-H522 lung = test system: NCI-H522 lung
HT29 colon = test system: HT29 colon
NCI/ADR-RES ovarian = test system: NCI/ADR-RES ovarian
TK-10 renal = test system: TK-10 renal
K-562 leukemia = test system: K-562 leukemia
UO-31 renal = test system: UO-31 renal
SK-OV-3 ovarian = test system: SK-OV-3 ovarian
HCT-116 colon = test system: HCT-116 colon
SF-295 CNS = test system: SF-295 CNS
RXF 393 renal = test system: RXF 393 renal
CAKI-1 renal = test system: CAKI-1 renal
SF-268 CNS = test system: SF-268 CNS
HL-60(TB) leukemia = test system: HL-60(TB) leukemia
BT-549 breast = test system: BT-549 breast
COLO 205 colon = test system: COLO 205 colon
HOP-92 NSCLC = test system: HOP-92 NSCLC
SF-539 CNS = test system: SF-539 CNS
HCC-2998 colon = test system: HCC-2998 colon
OVCAR-3 ovarian = test system: OVCAR-3 ovarian
HOP-62 NSCLC = test system: HOP-62 NSCLC
T-47D breast = test system: T-47D breast
NCI-H226 lung = test system: NCI-H226 lung
A498 renal = test system: A498 renal
SK-MEL-5 melanoma = test system: SK-MEL-5 melanoma

Measured: TGI

COC[C@@H](N=Cc1ccc([N+](=O)[O-])cc1)C(C)C
not listed: HL-60(TB) leukemia | BT-549 breast | COLO 205 colon | HOP-92 NSCLC | SF-539 CNS | HCC-2998 colon | OVCAR-3 ovarian | HOP-62 NSCLC | T-47D breast | NCI-H226 lung | A498 renal | SK-MEL-5 melanoma
> 100 µM: all other assays above

CCOC(=O)c1cc2c([N+](=O)[O-])c(N)ccc2s1
not listed: SR leukemia
> 100 µM: all other assays above
